From patent US20210355104A1, “ADENOSINE RECEPTOR BINDING COMPOUNDS” (Nikang Therapeuticsm Inc., priority 2018, published 2021) come the findings set out here.

The target in test [1] is T1, Adenosine A2A receptor (Homo sapiens, UniProt P29274). The test is described as follows: Adenosine A2A receptor competitive binding assay (Tag-lite HTRF). The settings on record: Tag-lite adenosine A2A receptor ligand binding. Summed up: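 Tag-lite HTRF competition: donor-labelled cells expressing human A2A were mixed with serially diluted compounds (DMSO 0.6% in dilutions) and red fluorescent A2A antagonist ligand (60 nM stock). Incubated 2 h at room temperature before HTRF readout.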
T1 sequence (P29274 whole entry): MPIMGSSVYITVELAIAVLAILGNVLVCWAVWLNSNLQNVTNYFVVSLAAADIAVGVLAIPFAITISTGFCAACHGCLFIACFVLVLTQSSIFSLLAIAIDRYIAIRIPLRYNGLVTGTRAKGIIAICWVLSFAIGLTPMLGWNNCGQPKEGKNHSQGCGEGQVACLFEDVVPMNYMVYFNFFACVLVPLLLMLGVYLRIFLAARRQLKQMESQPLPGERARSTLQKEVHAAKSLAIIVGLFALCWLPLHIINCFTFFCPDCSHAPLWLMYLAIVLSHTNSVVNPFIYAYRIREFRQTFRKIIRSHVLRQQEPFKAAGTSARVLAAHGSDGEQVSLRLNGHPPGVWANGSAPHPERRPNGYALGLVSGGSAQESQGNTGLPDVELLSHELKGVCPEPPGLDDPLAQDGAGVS
In general terms: In TR-FRET formats the signal depends on donor and acceptor labels being close together.

Test [2] has as its target T1, Adenosine A2A receptor. The test is described as follows: cAMP assay in 293A cells stably expressing the adenosine A2A receptor (CGS21680 stimulation, HTRF). The format is cell-based. Details: expressed in transfected cells; host or cells: 293A cells (Invitrogen, Cat# R705-07) infected with A2A-expressing lentivirus (custom packaged by Biosettia), puromycin selected. The settings on record: 293A-A2AR cells, 0.1% BSA. (In general: cAMP levels reflect the balance of adenylyl cyclase and phosphodiesterase activity.)

[3] abbreviates: 2 h room temperature, values separated by / are repeat determinations.
Setting [4] is: 8 nM CGS, values separated by / are repeat determinations, read-out: cAMP (nM) 0.1% BSA, 8 nM CGS.
Setting [5] is: 1 uM CGS, values separated by / are repeat determinations, read-out: cAMP (nM) 0.1% BSA, 1 uM CGS.
Setting [6] is: 8 nM CGS, read-out: cAMP (nM) 0.1% BSA, 8 nM CGS.
The mark [7] stands for this setting: 1 uM CGS, read-out: cAMP (nM) 0.1% BSA, 1 uM CGS.

Where “and” joins values, the source holds several entries; their conditions need not be identical. Identical values can stand only once.

As for `Cc1cc(-c2c(OCc3nn(C)cc3C(C)C)nc(N)nc2-c2ccc(F)cc2)cc(C(F)F)n1` [Example 184, 5-(2-(difluoromethyl)-6-methylpyridin-4-yl)-4-(4-fluorophenyl)-6-((4-isopropyl-1-methyl-1H-pyrazol-3-yl)methoxy)pyrimidin-2-amine], the IC50 came out at 33 nM in test [1] (setting [3]) and 8.8 nM in test [2] (setting [4]).
Regarding `CCN(CCOc1nc(N)nc(-c2ccc(F)cc2)c1-c1cc(C)nc(C(F)F)c1)C(=O)NC` [Example 124, 1-(2-((2-amino-5-(2-(difluoromethyl)-6-methylpyridin-4-yl)-6-(4-fluorophenyl)pyrimidin-4-yl)oxy)ethyl)-1-ethyl-3-methylurea], the IC50 in test [1] (setting [3]) is 1.7 nM; in test [2] (setting [4]), 1.1 nM and 0.5 nM; in test [2] (setting [5]), 535 nM.
As for `CCN(CC)C(=O)COc1nc(N)nc(-c2ccco2)c1-c1cc(C)nc(C(F)(F)F)c1` [Example 11, 2-((2-amino-6-(furan-2-yl)-5-(2-methyl-6-(trifluoromethyl)pyridin-4-yl)pyrimidin-4-yl)oxy)-N,N-diethylacetamide], the values for the IC50 in test [1] (setting [3]) and in test [2] (setting [4]) were 7.21 nM and 3.2 nM, respectively.
For `Cc1cc(-c2c(OCc3cccc(CO[C@H]4CCOC4)n3)nc(N)nc2-c2ccccc2)cc(C(F)(F)F)n1` [Example 5, (S)-5-(2-methyl-6-(trifluoromethyl)pyridin-4-yl)-4-phenyl-6-((6-(((tetrahydrofuran-3-yl)oxy)methyl)pyridin-2-yl)methoxy)pyrimidin-2-amine] the same measures were 8.97 nM and 11.5 nM.
`Cc1cc(-c2c(OCC(O)CN(C)c3ccccn3)nc(N)nc2-c2ccc(F)cc2)cc(C(F)F)n1` (stereo not drawn) [Example 201, 1-((2-amino-5-(2-(difluoromethyl)-6-methylpyridin-4-yl)-6-(4-fluorophenyl)pyrimidin-4-yl)oxy)-3-(methyl(pyridin-2-yl)amino)propan-2-ol]: the IC50 is 1 nM and 6.5 nM in test [1] (HTRF); 4.2 nM and 3.5 nM in test [2] (setting [6]).
As to `Cc1cc(-c2c(OCC(=O)NCC(C)(F)F)nc(N)nc2-c2ccc(F)cc2)cc(C(F)F)n1` [Example 162, 2-((2-amino-5-(2-(difluoromethyl)-6-methylpyridin-4-yl)-6-(4-fluorophenyl)pyrimidin-4-yl)oxy)-N-(2,2-difluoropropyl)acetamide], the IC50 in test [1] (setting [3]) amounted to 21.1 nM; in test [2] (setting [4]) it was 8.4 nM.
Turning to `Cc1cc(-c2c(OCCOc3cccc(N(C)CCO)n3)nc(N)nc2-c2ccc(F)cc2)cc(C(F)F)n1` [Example 213, 2-((6-(2-((2-amino-5-(2-(difluoromethyl)-6-methylpyridin-4-yl)-6-(4-fluorophenyl)pyrimidin-4-yl)oxy)ethoxy)pyridin-2-yl)(methyl)amino)ethan-1-ol], the IC50 in test [1] (HTRF) came to 9.3 nM; in test [2] (setting [6]), 3.4 nM; in test [2] (setting [7]), 7.16 nM.
`CCN(CC(C)O)C(=O)COc1nc(N)nc(-c2ccc(F)cc2)c1-c1cc(C)nc(C(F)F)c1` (stereo not drawn) [Example 198, 2-((2-amino-5-(2-(difluoromethyl)-6-methylpyridin-4-yl)-6-(4-fluorophenyl)pyrimidin-4-yl)oxy)-N-ethyl-N-(2-hydroxypropyl)acetamide]: the IC50 in test [1] (HTRF) amounted to 14.9 nM; in test [2] (setting [6]), 10 nM.
In the case of `Cc1cc(-c2c(OCC(=O)N(C)c3ccccc3)nc(N)nc2-c2ccc(F)cc2)cc(C(F)F)n1` [Example 98, 2-((2-amino-5-(2-(difluoromethyl)-6-methylpyridin-4-yl)-6-(4-fluorophenyl)pyrimidin-4-yl)oxy)-N-methyl-N-phenylacetamide], the IC50 in test [1] (setting [3]) came out at 5.9 nM; in test [2] (setting [4]) it was 1.2 nM.
For `Cc1cc(-c2c(OCc3n[nH]cc3C(C)C)nc(N)nc2-c2ccc(F)cc2)cc(C(F)F)n1` [Example 183, 5-(2-(difluoromethyl)-6-methylpyridin-4-yl)-4-(4-fluorophenyl)-6-((4-isopropyl-1H-pyrazol-3-yl)methoxy)pyrimidin-2-amine] the same measures were 46 nM and 12 nM.
For `Cc1cc(-c2c(OCCCS(C)(=N)=O)nc(N)nc2-c2ccc(F)cc2)cc(C(F)F)n1` (stereo not drawn) [Example 169, (3-((2-amino-5-(2-(difluoromethyl)-6-methylpyridin-4-yl)-6-(4-fluorophenyl)pyrimidin-4-yl)oxy)propyl)(imino)(methyl)-λ^6-sulfanone] the same measures were 9.7 nM and 7.1 nM.
Turning to `Cc1cc(-c2c(OCCN3CCN(c4ccc(S(C)(=O)=O)cc4)CC3)nc(N)nc2-c2ccc(F)cc2)cc(C(F)F)n1` [Example 56, 5-(2-(difluoromethyl)-6-methylpyridin-4-yl)-4-(4-fluorophenyl)-6-(2-(4-(4-(methylsulfonyl)phenyl)piperazin-1-yl)ethoxy)pyrimidin-2-amine], the IC50 is 8.9 nM in test [1] (setting [3]) and 3.6 nM in test [2] (setting [4]).
Turning to `Cc1cc(-c2c(OCC(=O)N3CCOCC3)nc(N)nc2-c2ccccc2)cc(C(F)(F)F)n1` [Example 10, 2-((2-amino-5-(2-methyl-6-(trifluoromethyl)pyridin-4-yl)-6-phenylpyrimidin-4-yl)oxy)-1-morpholinoethan-1-one], the IC50 in test [1] (setting [3]) was 25.2 nM; in test [2] (setting [4]), 8.8 nM and 51.5 nM and 24.2 nM.
As for `Cc1cc(-c2c(OCc3nccn3CC(C)(C)O)nc(N)nc2-c2ccc(F)cc2)cc(C(F)F)n1` [Example 175, 1-(2-(((2-amino-5-(2-(difluoromethyl)-6-methylpyridin-4-yl)-6-(4-fluorophenyl)pyrimidin-4-yl)oxy)methyl)-1H-imidazol-1-yl)-2-methylpropan-2-ol], the IC50 in test [1] (setting [3]) came out at 15 nM; in test [2] (setting [4]) it was 19 nM.
In the case of `Cc1cc(-c2c(OCc3nc(C)n[nH]3)nc(N)nc2-c2ccc(F)cc2)cc(C(F)F)n1` [Example 97, 5-(2-(difluoromethyl)-6-methylpyridin-4-yl)-4-(4-fluorophenyl)-6-((3-methyl-1H-1,2,4-triazol-5-yl)methoxy)pyrimidin-2-amine], the IC50 in test [1] (setting [3]) amounted to 14 nM; in test [2] (setting [4]), 4.5 nM; in test [2] (setting [5]) it was 3310 nM.
As for `CCN(C(=O)COc1nc(N)nc(-c2ccc(F)cc2)c1-c1cc(C)nc(C(F)F)c1)c1ccccn1` [Example 117, 2-((2-amino-5-(2-(difluoromethyl)-6-methylpyridin-4-yl)-6-(4-fluorophenyl)pyrimidin-4-yl)oxy)-N-ethyl-N-(pyridin-2-yl)acetamide], the IC50 in test [1] (setting [3]) was found to be 39.4 nM; in test [2] (setting [4]) it was 27 nM.
On to `Cc1cc(-c2c(OCCN(C)c3ccccc3)nc(N)nc2-c2ccc(F)cc2)cc(C(F)F)n1` [Example 87, 5-(2-(difluoromethyl)-6-methylpyridin-4-yl)-4-(4-fluorophenyl)-6-(2-(methyl(phenyl)amino)ethoxy)pyrimidin-2-amine], for which the IC50 in test [1] (setting [3]) was 18 nM; in test [2] (setting [4]) it was 2.2 nM.
In the case of `CCn1cnc(COc2nc(N)nc(-c3ccc(F)cc3)c2-c2cc(C)nc(C(F)F)c2)n1` [Example 221, 5-(2-(difluoromethyl)-6-methyipyridin-4-yl)-4-((1-ethyl-1H-1,2,4-triazol-3-yl)methoxy)-6-(4-fluorophenyl)pyrimidin-2-amine], the IC50 in test [1] (HTRF) came to 24 nM; in test [2] (setting [7]) it was 444 nM.
Consider `Cc1cc(-c2c(OCc3cnnn3C(C)C)nc(N)nc2-c2ccc(F)cc2)cc(C(F)F)n1` [Example 180, 5-(2-(difluoromethyl)-6-methylpyridin-4-yl)-4-(4-fluorophenyl)-6-((1-isopropyl-1H-1,2,3-triazol-5-yl)methoxy)pyrimidin-2-amine], for which the figures for the IC50 in test [1] (setting [3]) and in test [2] (setting [4]) were 15 nM and 2.5 nM, respectively.
Regarding `Cc1cc(-c2c(OCc3cccnn3)nc(N)nc2-c2ccc(F)cc2)cc(C(F)F)n1` [Example 223, 5-(2-(difluoromethyl)-6-methylpyridin-4-yl)-4-(4-fluorophenyl)-6-(pyridazin-3-ylmethoxy)pyrimidin-2-amine], the IC50 in test [1] (HTRF) turned out to be 4.1 nM; in test [2] (setting [7]), 788 nM.
In the case of `CCN(C(=O)COc1nc(N)nc(-c2ccc(F)cc2)c1-c1cc(C)nc(C(F)F)c1)C1COC1` [Example 118, 2-((2-amino-5-(2-(difluoromethyl)-6-methylpyridin-4-yl)-6-(4-fluorophenyl)pyrimidin-4-yl)oxy)-N-ethyl-N-(oxetan-3-yl)acetamide], the figures for the IC50 in test [1] (setting [3]) and in test [2] (setting [4]) were 28.7 nM and 18 nM, respectively.
Consider `Cc1cc(-c2c(OC[C@H](O)CO)nc(N)nc2-c2ccc(F)cc2)cc(C(F)F)n1` [Example 86, (R)-3-((2-amino-5-(2-(difluoromethyl)-6-methylpyridin-4-yl)-6-(4-fluorophenyl)pyrimidin-4-yl)oxy)propane-1,2-diol], for which the IC50 in test [1] (setting [3]) is 13 nM; in test [2] (setting [4]), 2 nM and 9.1 nM and 10.5 nM; in test [2] (setting [5]), 1070 nM.
On to `Cc1cc(-c2c(OCc3nccn3CC3CC3)nc(N)nc2-c2ccc(F)cc2)cc(C(F)F)n1` [Example 177, 4-((1-(cyclopropylmethyl)-1H-imidazol-2-yl)methoxy)-5-(2-(difluoromethyl)-6-methylpyridin-4-yl)-6-(4-fluorophenyl)pyrimidin-2-amine], for which the IC50 in test [1] (setting [3]) was 0.2 nM; in test [2] (setting [4]), 2.6 nM and 2.9 nM; in test [2] (setting [5]), 271 nM.
